Assay results reported in paper PMC7849821, “The deubiquitylase USP9X controls ribosomal stalling” (The Journal of Cell Biology, 2021).

Key:
ZNF598 = experiment: Immunoblot of ZNF598 in FT709-treated HCT116 cells; assay type: cell-based; settings: 10 µM, 4 or 24 h
Procedure: (§1) Cultured cells were lysed for 10 min at 4°C in RIPA buffer (10 mM Tris-HCl, pH 7.5, 150 mM NaCl, 1% Triton X-100, 0.1% SDS, and 1% sodium deoxycholate) supplemented with mammalian protease inhibitor cocktail (Sigma-Aldrich). Proteins were resolved using SDS-PAGE (Invitrogen NuPage gel 4–12%), transferred to nitrocellulose membrane, blocked in 5% fat-free milk or 5% bovine serum albumin in TBS supplemented with Tween-20, and probed with primary antibodies overnight. Visualization and quantification of Western blots were performed using IRdye 800CW and 680LT coupled secondary antibodies and an Odyssey infrared scanner (LI-COR Biosciences).

CEP55 = experiment: MSD ELISA assay for CEP55 reduction in BxPC3 cells; assay type: cell-based; settings: Homo sapiens, BXPC-3, BxPC3 pancreatic cancer cells, 6 h exposure, read-out: IC50 for modulation (reduction) of CEP55 expression
Procedure: BxPC3 cells were seeded in 96-well plates and exposed to FT709 (20 µM top concentration, 1:2 serial dilutions) for 6 h. Cell lysates were prepared in RIPA buffer and stored at −80°C until analysis. Samples were analyzed by an MSD ELISA assay (Pacific Biolabs) using a CEP55 antibody (Novux; 1:500 dilution in PBS) captured overnight at 4°C, 30 µl lysates per well, 30 µl of CEP55 antibody (CST; 81693) diluted 1:2,000 in 1% blocker A/PBS and 30 µl per well of a 1:4,000 diluted goat anti-rabbit sulfo-tag, 1% blocker A/PBS. Plates were read on a MSD Sector Imager 2400. Results were transformed as percentage DMSO controls and curves fitted using a nonlinear regression to determine the IC50. Results presented are based on duplicate values.

[1] = test system: HEK293 Flp-In T-Rex GFP-P2A-(KAAA)21-P2A-RFP WT cells; experiment: Fluorescent ribosomal stalling reporter, FACS RFP:GFP ratio; assay type: cell-based; settings: 10 µM for 72 h
From the text: The HEK293 cells used in this study (HEK293-Flp-In TREX GFP-P2A-[K^AAA]21 -P2A-RFP) have been engineered to express a reporter system for terminal ribosomal stalling ([Juszkiewicz and Hegde, 2017]). The reporter cassette contains GFP (N-terminal) and RFP (C-terminal) separated by a FLAG-tagged stalling reporter (SR) incorporating a polyA stretch of twenty-one codons (K^AAA)21 (Fig. 5 B). This is flanked by viral P2A sequences, at which ribosomes skip formation of a peptide bond, without interrupting translation elongation. Consequently, unimpaired translation generates 3 proteins (GFP, FLAG-SR, RFP) in equal amounts. Stalling at the FLAG-SR aborts translation before RFP synthesis, leading to a substoichiometric RFP:GFP ratio. Failure to effectively respond to stalled ribosomes allows eventual read-through and a consequent rise in the RFP:GFP ratio that can be assessed by fluorescence-activated cell sorting (Fig. 5 B, schematic diagram; [Juszkiewicz and Hegde, 2017]). […] We also analyzed three of the cell populations treated with individual gRNAs as represented in Fig. 5 A that show varying effectiveness for USP9X depletion. […] We propose that USP9X inhibition may promote read-through by a combined effect on each of these RING E3 ligases linked to the ribosomal quality control pathway. […]

USP4 = USP4 (Homo sapiens, UniProt Q13107); experiment: DUB biochemical assay (Ub-rhodamine cleavage); settings: Ub-rhodamine substrate, DUB panel Fig. S2 A
Procedure: (§2) The assay was performed in a final volume of 6 µl in assay buffer containing 20 mM Tris buffer, pH 8, 0.03% bovine γ-globulin, 0.01% Triton X-100, and 1 mM glutathione. Nanoliter quantities of 10-point, threefold serial dilutions in DMSO were predispensed into 1,536 assay plates for a final top concentration between […] and subsequent half-log dilutions. 2× DUB (0.025 nM final concentration) was added and preincubated for 30 min at room temperature. 2× ubiquitin (Ub)-rhodamine (25 nM final concentration) was added to initiate the reaction. Fluorescence readings (excitation: 485 nm, emission: 535 nm) were acquired over 12 min (Envision reader). The slope of the data from each point was used to determine IC50.
(§3) For all assays, data were reported as percent inhibition compared with control wells. IC50 values were determined by curve fitting of the standard four-parameter logistic fitting algorithm included in the Activity Base software package IDBS XE Designer Model205. Data were fitted using the Levenburg–Marquardt algorithm.

USP13 = USP13 (Homo sapiens, UniProt Q92995); experiment: DUB biochemical assay (Ub-rhodamine cleavage); settings: Ub-rhodamine substrate, DUB panel Fig. S2 A
Procedure: as §2, §3

USP8 = USP8 (Homo sapiens, UniProt P40818); experiment: DUB biochemical assay (Ub-rhodamine cleavage); settings: Ub-rhodamine substrate, DUB panel Fig. S2 A
Procedure: as §2, §3

USP37 = USP37 (Homo sapiens, UniProt Q86T82); experiment: DUB biochemical assay (Ub-rhodamine cleavage); settings: Ub-rhodamine substrate, DUB panel Fig. S2 A
Procedure: as §2, §3

USP5 = USP5 (Homo sapiens, UniProt P45974); experiment: DUB biochemical assay (Ub-rhodamine cleavage); settings: Ub-rhodamine substrate, DUB panel Fig. S2 A
Procedure: as §2, §3

USP47 = USP47 (Homo sapiens, UniProt Q96K76); experiment: DUB biochemical assay (Ub-rhodamine cleavage); settings: Ub-rhodamine substrate, DUB panel Fig. S2 A
Procedure: as §2, §3

USP24 = USP24 (Homo sapiens, UniProt Q9UPU5); experiment: DUB biochemical assay (Ub-rhodamine cleavage); settings: Ub-rhodamine substrate, DUB panel Fig. S2 A
Procedure: as §2, §3

USP11 = USP11 (Homo sapiens, UniProt P51784); experiment: DUB biochemical assay (Ub-rhodamine cleavage); settings: Ub-rhodamine substrate, DUB panel Fig. S2 A
Procedure: as §2, §3

USP15 = USP15 (Homo sapiens, UniProt Q9Y4E8); experiment: DUB biochemical assay (Ub-rhodamine cleavage); settings: Ub-rhodamine substrate, DUB panel Fig. S2 A
Procedure: as §2, §3

USP10 = USP10 (Homo sapiens, UniProt Q14694); experiment: DUB biochemical assay (Ub-rhodamine cleavage); settings: Ub-rhodamine substrate, DUB panel Fig. S2 A
Procedure: as §2, §3

USP36 = USP36 (Homo sapiens, UniProt Q9P275); experiment: DUB biochemical assay (Ub-rhodamine cleavage); settings: Ub-rhodamine substrate, DUB panel Fig. S2 A
Procedure: as §2, §3

USP18 = USP18 (Homo sapiens, UniProt Q9UMW8); experiment: DUB biochemical assay (Ub-rhodamine cleavage); settings: Ub-rhodamine substrate, DUB panel Fig. S2 A
Procedure: as §2, §3

USP28 = USP28 (Homo sapiens, UniProt Q96RU2); experiment: DUB biochemical assay (Ub-rhodamine cleavage); settings: Ub-rhodamine substrate, DUB panel Fig. S2 A
Procedure: as §2, §3

USP25 = USP25 (Homo sapiens, UniProt Q9UHP3); experiment: DUB biochemical assay (Ub-rhodamine cleavage); settings: Ub-rhodamine substrate, DUB panel Fig. S2 A
Procedure: as §2, §3

USP7 = USP7 (Homo sapiens, UniProt Q93009); experiment: DUB biochemical assay (Ub-rhodamine cleavage); settings: Ub-rhodamine substrate, DUB panel Fig. S2 A
Procedure: as §2, §3

USP1 = USP1 (Homo sapiens, UniProt O94782); experiment: DUB biochemical assay (Ub-rhodamine cleavage); settings: Ub-rhodamine substrate, DUB panel Fig. S2 A
Procedure: as §2, §3

USP33 = USP33 (Homo sapiens, UniProt Q8TEY7); experiment: DUB biochemical assay (Ub-rhodamine cleavage); settings: Ub-rhodamine substrate, DUB panel Fig. S2 A
Procedure: as §2, §3

USP22 = USP22 (Homo sapiens, UniProt Q9UPT9); experiment: DUB biochemical assay (Ub-rhodamine cleavage); settings: Ub-rhodamine substrate, DUB panel Fig. S2 A
Procedure: as §2, §3

USP12 = USP12 (Homo sapiens, UniProt O75317); experiment: DUB biochemical assay (Ub-rhodamine cleavage); settings: Ub-rhodamine substrate, DUB panel Fig. S2 A
Procedure: as §2, §3

USP2 = USP2 (Homo sapiens, UniProt O75604); experiment: DUB biochemical assay (Ub-rhodamine cleavage); settings: Ub-rhodamine substrate, DUB panel Fig. S2 A
Procedure: as §2, §3

ZNF598 and MKRN2 = experiment: Immunoblot of FT709 responsive markers in A549 and U2OS cells; assay type: cell-based; settings: 10 µM
Procedure: as §1

ZNF598, MKRN1 and MKRN2 = experiment: Immunoblot of ZNF598 and Makorins in FT709-treated (KAAA)21 WT cells; assay type: cell-based; settings: (KAAA)21 WT HEK293 cells, indicated concentrations for 48 h
Procedure: as §1

HCT116 cells = experiment: SILAC-based proteome analysis of FT709-treated HCT116 cells; assay type: cell-based; settings: 10 µM, 24 h
Procedure: HCT116 cells were grown in SILAC DMEM supplemented with 10% dialyzed FBS (Dundee Cell Products) at 37°C and 5% CO2. To generate light, medium, and heavy stable isotope-labeled cells, arginine- and lysine-free DMEM medium was supplemented with 200 mg/liter L-proline and either L-lysine (Lys0) together with L-arginine (Arg0; light), L-lysine-^2H4 (Lys4) with L-arginine-U-^13C6 (Arg6; medium), or L-lysine-U-^13C6-^15N2 (Lys8) with L-arginine-U-^13C6-^15N4 (Arg10; heavy) at final concentrations of 84 mg/liter for the arginine and 146 mg/liter for the lysine until fully metabolically labeled. […] Relative protein concentrations of the lysates were determined using a bicinchoninic acid assay (Thermo Fisher Scientific), and light-, medium-, and heavy-labeled lysates were combined in a 1:1:1 ratio.
Protein extracts (1.2–1.5 mg) containing SDS were reduced with 5 mM dithiothreitol, alkylated with 20 mM iodoacetamide, and then subjected to methanol/chloroform extraction. […] Peptide fractions were analyzed in technical replicates by nano-UPLC-MS/MS using a Dionex Ultimate 3000 nano UPLC with EASY spray column (75 µm × 500 mm, 2 µm particle size; Thermo Fisher Scientific) with a 60-min gradient of 2% acetonitrile/0.1% formic acid/5% DMSO to 35% acetonitrile/0.1% formic acid/5% DMSO at a flow rate of ∼250 nl/min. […]

Sequence of USP33 (Q8TEY7 whole entry, species assumed): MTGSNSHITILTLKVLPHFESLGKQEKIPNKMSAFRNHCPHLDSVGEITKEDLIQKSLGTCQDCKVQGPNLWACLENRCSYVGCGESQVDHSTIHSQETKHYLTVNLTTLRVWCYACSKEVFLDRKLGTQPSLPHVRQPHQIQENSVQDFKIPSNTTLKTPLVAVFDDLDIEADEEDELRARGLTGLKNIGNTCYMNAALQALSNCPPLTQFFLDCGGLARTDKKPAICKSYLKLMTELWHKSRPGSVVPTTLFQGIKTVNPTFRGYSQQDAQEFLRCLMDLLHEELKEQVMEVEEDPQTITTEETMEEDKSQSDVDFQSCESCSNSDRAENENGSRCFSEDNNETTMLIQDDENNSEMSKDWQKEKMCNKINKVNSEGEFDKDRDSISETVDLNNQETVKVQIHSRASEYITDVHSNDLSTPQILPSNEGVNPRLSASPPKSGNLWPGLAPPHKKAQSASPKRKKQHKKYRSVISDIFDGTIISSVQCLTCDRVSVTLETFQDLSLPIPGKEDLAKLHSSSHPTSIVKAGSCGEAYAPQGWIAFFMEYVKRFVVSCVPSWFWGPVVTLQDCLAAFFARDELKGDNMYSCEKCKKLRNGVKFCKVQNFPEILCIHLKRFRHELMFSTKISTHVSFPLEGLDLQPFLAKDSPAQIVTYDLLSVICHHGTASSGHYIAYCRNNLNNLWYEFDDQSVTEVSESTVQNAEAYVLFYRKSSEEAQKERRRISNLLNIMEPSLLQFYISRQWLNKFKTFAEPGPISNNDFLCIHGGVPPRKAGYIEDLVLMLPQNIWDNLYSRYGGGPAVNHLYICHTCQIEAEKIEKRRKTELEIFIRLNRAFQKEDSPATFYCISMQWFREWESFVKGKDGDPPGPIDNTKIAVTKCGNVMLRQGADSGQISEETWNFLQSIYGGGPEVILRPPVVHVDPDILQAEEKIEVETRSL
Sequence of USP5 (P45974 whole entry, species assumed): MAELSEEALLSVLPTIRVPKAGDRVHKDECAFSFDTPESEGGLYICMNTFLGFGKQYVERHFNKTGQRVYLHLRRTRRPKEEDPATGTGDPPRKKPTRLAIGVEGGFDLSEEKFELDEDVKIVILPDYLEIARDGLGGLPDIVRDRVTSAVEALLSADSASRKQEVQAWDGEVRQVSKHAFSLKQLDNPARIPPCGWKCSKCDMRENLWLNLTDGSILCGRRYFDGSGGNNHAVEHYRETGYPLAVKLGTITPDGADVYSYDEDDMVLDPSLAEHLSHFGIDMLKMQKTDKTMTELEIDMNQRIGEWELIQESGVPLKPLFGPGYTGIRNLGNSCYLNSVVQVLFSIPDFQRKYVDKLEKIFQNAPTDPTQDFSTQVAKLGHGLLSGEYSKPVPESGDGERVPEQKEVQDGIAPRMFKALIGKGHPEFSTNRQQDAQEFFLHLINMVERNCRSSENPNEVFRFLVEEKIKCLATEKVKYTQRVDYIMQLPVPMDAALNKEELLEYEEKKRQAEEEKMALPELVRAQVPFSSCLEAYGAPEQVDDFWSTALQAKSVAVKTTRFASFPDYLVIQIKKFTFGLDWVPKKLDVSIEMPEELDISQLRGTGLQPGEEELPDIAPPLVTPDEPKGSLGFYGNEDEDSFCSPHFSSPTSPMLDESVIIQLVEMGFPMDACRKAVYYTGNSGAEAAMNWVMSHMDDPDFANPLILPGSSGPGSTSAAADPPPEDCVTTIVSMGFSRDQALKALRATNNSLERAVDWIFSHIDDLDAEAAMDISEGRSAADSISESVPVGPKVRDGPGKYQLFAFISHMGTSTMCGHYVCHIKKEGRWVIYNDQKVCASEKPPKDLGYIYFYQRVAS
Sequence of USP24 (Q9UPU5 whole entry, species assumed): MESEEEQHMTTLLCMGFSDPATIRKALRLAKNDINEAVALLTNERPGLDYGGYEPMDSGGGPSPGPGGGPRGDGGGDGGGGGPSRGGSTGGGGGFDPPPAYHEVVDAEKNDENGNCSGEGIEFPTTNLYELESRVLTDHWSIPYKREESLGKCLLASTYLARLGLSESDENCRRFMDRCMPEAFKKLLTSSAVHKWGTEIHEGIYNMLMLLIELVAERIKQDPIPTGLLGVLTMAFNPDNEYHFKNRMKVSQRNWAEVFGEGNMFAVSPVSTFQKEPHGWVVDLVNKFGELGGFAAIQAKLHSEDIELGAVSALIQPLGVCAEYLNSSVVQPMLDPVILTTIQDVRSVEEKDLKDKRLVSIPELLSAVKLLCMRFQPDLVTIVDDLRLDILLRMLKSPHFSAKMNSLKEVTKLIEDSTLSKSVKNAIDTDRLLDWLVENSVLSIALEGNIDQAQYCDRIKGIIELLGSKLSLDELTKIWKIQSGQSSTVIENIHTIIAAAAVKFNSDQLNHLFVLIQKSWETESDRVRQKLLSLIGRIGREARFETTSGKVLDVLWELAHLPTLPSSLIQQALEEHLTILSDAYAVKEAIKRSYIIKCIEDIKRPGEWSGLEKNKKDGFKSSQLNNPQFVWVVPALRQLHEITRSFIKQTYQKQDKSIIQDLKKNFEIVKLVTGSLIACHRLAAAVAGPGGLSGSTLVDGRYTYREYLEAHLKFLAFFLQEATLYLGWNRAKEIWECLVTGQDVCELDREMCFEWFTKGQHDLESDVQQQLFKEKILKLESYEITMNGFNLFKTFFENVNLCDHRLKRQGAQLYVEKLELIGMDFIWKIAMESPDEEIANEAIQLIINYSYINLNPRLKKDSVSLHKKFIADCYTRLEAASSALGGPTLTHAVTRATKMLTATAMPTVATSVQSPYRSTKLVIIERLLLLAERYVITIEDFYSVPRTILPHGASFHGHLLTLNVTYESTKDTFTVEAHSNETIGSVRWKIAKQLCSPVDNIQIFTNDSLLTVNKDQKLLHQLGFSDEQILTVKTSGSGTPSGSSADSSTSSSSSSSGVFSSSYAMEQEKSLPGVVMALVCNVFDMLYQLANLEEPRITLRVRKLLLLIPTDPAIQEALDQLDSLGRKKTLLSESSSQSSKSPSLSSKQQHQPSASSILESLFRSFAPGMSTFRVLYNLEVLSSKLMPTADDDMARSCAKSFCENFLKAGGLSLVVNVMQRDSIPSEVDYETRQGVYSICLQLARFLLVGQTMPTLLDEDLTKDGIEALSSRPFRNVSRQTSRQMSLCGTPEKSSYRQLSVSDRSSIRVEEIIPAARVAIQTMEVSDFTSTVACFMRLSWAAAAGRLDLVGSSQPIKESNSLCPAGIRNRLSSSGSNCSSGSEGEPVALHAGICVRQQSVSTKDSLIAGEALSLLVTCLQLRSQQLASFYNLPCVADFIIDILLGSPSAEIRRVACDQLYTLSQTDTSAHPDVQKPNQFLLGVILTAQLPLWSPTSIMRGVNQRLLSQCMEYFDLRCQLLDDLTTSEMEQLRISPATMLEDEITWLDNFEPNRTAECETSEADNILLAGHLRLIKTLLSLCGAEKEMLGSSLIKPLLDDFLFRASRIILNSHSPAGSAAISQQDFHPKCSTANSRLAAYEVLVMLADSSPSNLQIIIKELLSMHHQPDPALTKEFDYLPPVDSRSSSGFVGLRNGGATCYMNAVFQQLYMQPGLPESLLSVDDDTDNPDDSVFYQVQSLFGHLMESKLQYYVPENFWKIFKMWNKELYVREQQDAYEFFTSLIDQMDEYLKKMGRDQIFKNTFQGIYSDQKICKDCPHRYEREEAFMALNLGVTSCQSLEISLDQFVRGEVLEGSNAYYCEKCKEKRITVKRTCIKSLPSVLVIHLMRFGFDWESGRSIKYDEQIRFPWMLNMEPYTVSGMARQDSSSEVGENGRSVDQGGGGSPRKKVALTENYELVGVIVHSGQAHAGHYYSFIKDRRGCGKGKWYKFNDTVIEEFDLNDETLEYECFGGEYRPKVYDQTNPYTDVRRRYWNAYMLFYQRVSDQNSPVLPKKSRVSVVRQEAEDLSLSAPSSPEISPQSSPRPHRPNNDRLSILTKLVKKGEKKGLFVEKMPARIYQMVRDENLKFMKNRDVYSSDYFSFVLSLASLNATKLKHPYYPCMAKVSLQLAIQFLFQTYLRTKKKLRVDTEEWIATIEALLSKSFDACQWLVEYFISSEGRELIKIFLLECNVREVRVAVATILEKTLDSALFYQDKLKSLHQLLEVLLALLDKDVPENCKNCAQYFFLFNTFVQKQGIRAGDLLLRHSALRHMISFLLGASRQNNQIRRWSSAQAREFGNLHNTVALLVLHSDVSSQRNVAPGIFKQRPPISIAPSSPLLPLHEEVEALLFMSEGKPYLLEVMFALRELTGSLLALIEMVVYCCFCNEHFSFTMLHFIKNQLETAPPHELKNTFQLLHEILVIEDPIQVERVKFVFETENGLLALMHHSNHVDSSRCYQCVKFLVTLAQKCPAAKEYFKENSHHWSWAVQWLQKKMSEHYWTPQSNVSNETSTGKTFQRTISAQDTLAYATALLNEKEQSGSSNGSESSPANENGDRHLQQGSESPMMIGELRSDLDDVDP
Sequence of USP18 (Q9UMW8 whole entry, species assumed): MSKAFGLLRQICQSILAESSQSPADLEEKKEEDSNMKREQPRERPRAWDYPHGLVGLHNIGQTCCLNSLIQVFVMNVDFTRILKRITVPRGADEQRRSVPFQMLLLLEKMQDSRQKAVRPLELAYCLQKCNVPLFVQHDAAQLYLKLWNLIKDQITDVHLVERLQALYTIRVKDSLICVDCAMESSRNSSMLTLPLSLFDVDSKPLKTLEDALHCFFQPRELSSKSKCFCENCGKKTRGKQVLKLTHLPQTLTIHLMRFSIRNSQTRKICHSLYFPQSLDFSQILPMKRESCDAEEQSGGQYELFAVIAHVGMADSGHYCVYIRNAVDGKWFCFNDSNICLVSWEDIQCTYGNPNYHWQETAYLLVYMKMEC

## Cc1nc2c(C(O)C(=O)N3CC4=C(C3)CN(S(=O)(=O)c3cnc5c(c3)OCCO5)C4)cccc2o1 (centres unmarked) [FT709]
ZNF598
  ZNF598 protein level: reduction of ZNF598
CEP55
  IC50: 0.131 µM
[1]
  polyA read-through (RFP:GFP ratio): recapitulate polyA read-through
USP4
  IC50: > 33.3 µM
USP13
  IC50: > 26.7 µM
USP8
  IC50: > 25 µM
USP37
  IC50: > 33.3 µM
USP5
  IC50: > 33.3 µM
USP47
  IC50: > 33.3 µM
USP24
  IC50: > 26.7 µM
USP11
  IC50: > 33.3 µM
USP15
  IC50: > 26.7 µM
USP10
  IC50: > 33.3 µM
USP36
  IC50: > 26.7 µM
USP18
  IC50: > 27.9 µM
USP28
  IC50: > 26.7 µM
USP25
  IC50: > 26.7 µM
USP7
  IC50: > 25.8 µM
USP1
  IC50: > 25.8 µM
USP33
  IC50: > 26.7 µM
USP22
  IC50: > 26.7 µM
USP12
  IC50: > 33.3 µM
USP2
  IC50: > 26.7 µM
ZNF598 and MKRN2
  FT709-dependent loss of ZNF598 versus MKRN2: loss of ZNF598 is minor compared with MKRN2
ZNF598, MKRN1 and MKRN2
  ZNF598, MKRN1 and MKRN2 protein levels: smaller reduction in ZNF598 levels but was again accompanied by parallel reductions in MKRN1 and 2
HCT116 cells
  Protein abundance change in SILAC proteomic datasets: de-enrichment of ZNF598 and MKRN2
